ChEMBL document CHEMBL2311270, “Additional acetyl cholinesterase inhibitory property of diaryl pyrazoline derivatives” (Bioorg Med Chem Lett, 2013)
pKi: −log10 of the molar value. Active and inactive are the calls of the source. The rule behind the calls is not given here.

What was measured:
[1] = molecular target: Cholinesterase (Equus caballus) (UniProt P81908); experiment: Inhibition of equine serum BChE using butyrylthiocholine iodide as substrate up to 100 nM after 60 mins by Ellman's method
Cholinesterase (Equus caballus), sequence (P81908 whole entry): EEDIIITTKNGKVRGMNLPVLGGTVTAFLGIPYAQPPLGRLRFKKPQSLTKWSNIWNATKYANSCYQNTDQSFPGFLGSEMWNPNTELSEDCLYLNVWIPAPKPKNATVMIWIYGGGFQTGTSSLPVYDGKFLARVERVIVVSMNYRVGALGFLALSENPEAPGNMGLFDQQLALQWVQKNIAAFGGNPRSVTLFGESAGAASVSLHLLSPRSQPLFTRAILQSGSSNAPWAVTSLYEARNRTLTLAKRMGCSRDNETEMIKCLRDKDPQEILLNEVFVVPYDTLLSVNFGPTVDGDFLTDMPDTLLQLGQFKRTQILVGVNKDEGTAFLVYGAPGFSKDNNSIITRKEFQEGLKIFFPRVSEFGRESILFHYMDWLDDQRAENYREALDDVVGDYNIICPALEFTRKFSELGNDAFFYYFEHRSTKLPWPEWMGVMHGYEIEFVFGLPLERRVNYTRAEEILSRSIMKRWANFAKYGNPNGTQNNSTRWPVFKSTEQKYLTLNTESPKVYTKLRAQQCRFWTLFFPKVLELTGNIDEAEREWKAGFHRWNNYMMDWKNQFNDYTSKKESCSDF

[2] = molecular target: Acetylcholinesterase (Homo sapiens, UniProt P22303)
Acetylcholinesterase, sequence (P22303 whole entry): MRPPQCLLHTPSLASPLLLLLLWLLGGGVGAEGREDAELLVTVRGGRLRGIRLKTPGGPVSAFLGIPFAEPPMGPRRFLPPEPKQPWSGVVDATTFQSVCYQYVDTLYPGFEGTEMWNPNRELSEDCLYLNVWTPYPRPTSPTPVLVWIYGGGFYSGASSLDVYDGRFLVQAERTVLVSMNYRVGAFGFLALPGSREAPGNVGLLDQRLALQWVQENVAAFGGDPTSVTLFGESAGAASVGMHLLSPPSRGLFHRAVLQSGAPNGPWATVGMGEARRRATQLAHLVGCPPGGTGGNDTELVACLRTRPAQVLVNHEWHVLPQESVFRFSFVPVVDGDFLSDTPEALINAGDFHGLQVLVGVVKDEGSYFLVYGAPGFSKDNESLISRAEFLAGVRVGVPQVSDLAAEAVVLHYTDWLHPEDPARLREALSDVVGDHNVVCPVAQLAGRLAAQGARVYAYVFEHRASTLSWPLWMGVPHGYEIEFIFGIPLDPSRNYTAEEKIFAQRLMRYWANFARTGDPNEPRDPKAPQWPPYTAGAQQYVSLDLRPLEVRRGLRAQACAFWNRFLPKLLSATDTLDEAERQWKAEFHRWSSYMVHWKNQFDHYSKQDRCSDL
Description: Inhibition of human erythrocyte AChE using acetylthiocholine iodide as substrate after 60 mins by Ellman's method

Compound	inhibition [1]	pKi [2]
c1ccc([C@@H]2CC(c3c4ccccc4cc4ccccc34)=NN2)cc1	inactive	7.52
Oc1ccccc1[C@@H]1CC(c2c3ccccc3cc3ccccc23)=NN1	inactive	7.61
c1ccc([C@@H]2CC(c3c4ccccc4cc4ccccc34)=NN2)nc1	inactive	7.38
Oc1ccc([C@@H]2CC(c3c4ccccc4cc4ccccc34)=NN2)c(O)c1	inactive	8.14
Oc1ccc([C@@H]2CC(c3c4ccccc4cc4ccccc34)=NN2)cc1	–	< 7.00
O=[N+]([O-])c1cccc([C@@H]2CC(c3c4ccccc4cc4ccccc34)=NN2)c1	inactive	7.69
O=[N+]([O-])c1ccc([C@@H]2CC(c3c4ccccc4cc4ccccc34)=NN2)cc1	–	< 7.00
Clc1ccc([C@@H]2CC(c3c4ccccc4cc4ccccc34)=NN2)cc1	inactive	–
Cc1ccc([C@@H]2CC(c3c4ccccc4cc4ccccc34)=NN2)cc1	–	< 7.00
COc1ccc([C@@H]2CC(c3c4ccccc4cc4ccccc34)=NN2)cc1	inactive	7.60
